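Cultured in 96-well plates, cells were exposed to test compound for 48 hours across five concentrations. TGI marks complete inhibition of growth.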
Tests used:
Assay in all cases: NCI anticancer screen, dose series, 48 h
ACHN renal = test system: ACHN renal
HCT-15 colon = test system: HCT-15 colon
IGROV1 ovarian = test system: IGROV1 ovarian
KM12 colon = test system: KM12 colon
LOX IMVI melanoma = test system: LOX IMVI melanoma
OVCAR-4 ovarian = test system: OVCAR-4 ovarian
OVCAR-5 ovarian = test system: OVCAR-5 ovarian
OVCAR-8 ovarian = test system: OVCAR-8 ovarian
PC-3 prostate = test system: PC-3 prostate
T-47D breast = test system: T-47D breast

| Compound | TGI (ACHN renal) | TGI (HCT-15 colon) | TGI (IGROV1 ovarian) | TGI (KM12 colon) | TGI (LOX IMVI melanoma) | TGI (OVCAR-4 ovarian) | TGI (OVCAR-5 ovarian) | TGI (OVCAR-8 ovarian) | TGI (PC-3 prostate) | TGI (T-47D breast) |
| --- | --- | --- | --- | --- | --- | --- | --- | --- | --- | --- |
| CC(=O)OC1C(C)OC(OC2C[C@](O)(C(C)=O)Cc3c(O)c4c(c(O)c32)C(=O)c2ccccc2C4=O)C(F)C1OC(C)=O (stereo not given in full) | 0.704 µM | 6.34 µM | 9.34 µM | > 100 µM | 3.65 µM | 41.8 µM | 5.45 µM | 10.7 µM | 22.4 µM | 41.2 µM |
| O=C1CSC(c2cccc(Oc3ccccc3)c2)N1c1cc(Cl)ccc1Cl (stereo not given) | 49.1 µM | 58.6 µM | – | 79.2 µM | 43.1 µM | 60.8 µM | 76.9 µM | 62.5 µM | 52.5 µM | 89.6 µM |
| C[C@@H](c1ccccc1)N(CC#N)[C@H]1CCC[C@]1(O)/C=C/c1ccc2c(c1)OCO2 | 8.04 µM | > 25 µM | > 25 µM | > 25 µM | > 25 µM | > 25 µM | > 25 µM | > 25 µM | > 25 µM | > 25 µM |
| CCCCSC1=N/C(=C\c2ccccc2O)C(Cl)=N1 | > 100 µM | > 100 µM | > 100 µM | > 100 µM | > 100 µM | > 100 µM | > 100 µM | > 100 µM | > 100 µM | > 100 µM |
| CCOP(=O)(OCC)/C(C#N)=C(\C)c1ccco1 | > 10 µM | > 10 µM | > 10 µM | > 10 µM | > 10 µM | > 10 µM | > 10 µM | > 10 µM | > 10 µM | > 10 µM |
| Nc1nc(Nc2cc(F)c(Cl)c(F)c2)cc(=O)[nH]1 | > 100 µM | > 100 µM | > 100 µM | > 100 µM | > 100 µM | > 100 µM | > 100 µM | > 100 µM | > 100 µM | > 100 µM |
| CC(C)[C@H](NC(=O)OCc1ccccc1)C(=O)N[C@H](/C=C/C(=O)OC(C)(C)C)CO | > 100 µM | > 100 µM | > 100 µM | > 100 µM | > 100 µM | > 100 µM | > 100 µM | > 100 µM | > 100 µM | > 100 µM |
| O=C(NCc1ccc(Cl)c(Cl)c1)c1nc2ccccc2nc1NCc1ccc(Cl)c(Cl)c1 | > 100 µM | > 100 µM | > 100 µM | > 100 µM | > 100 µM | – | > 100 µM | > 100 µM | > 100 µM | > 100 µM |
| O=CC12CCCN1CCC2 | > 100 µM | > 100 µM | > 100 µM | – | > 100 µM | > 100 µM | > 100 µM | – | > 100 µM | > 100 µM |
| CSC(=NCCCN=C(NS(=O)(=O)c1ccc(Cl)cc1)SC)NS(=O)(=O)c1ccc(Cl)cc1 | > 100 µM | > 100 µM | > 100 µM | – | 70.6 µM | > 100 µM | > 100 µM | > 100 µM | 35.2 µM | > 100 µM |
| NS(=O)(=O)C1CCCCC1C(=O)NNC(=O)C(=O)Nc1nc(=S)[nH][nH]1 (stereo not given) | > 100 µM | > 100 µM | > 100 µM | > 100 µM | > 100 µM | > 100 µM | > 100 µM | > 100 µM | – | – |
| CCc1nc2cc(F)ccc2[nH]c1=O | > 100 µM | > 100 µM | – | > 100 µM | > 100 µM | > 100 µM | > 100 µM | > 100 µM | > 100 µM | – |
| COc1cc(COC(=O)NC(Cc2cccs2)C(=O)O)c([N+](=O)[O-])cc1OC (stereo not given) | > 100 µM | > 100 µM | > 100 µM | > 100 µM | – | – | > 100 µM | > 100 µM | > 100 µM | > 100 µM |
| NS(=O)(=O)c1cc2c(cc1Cl)NC(C(=O)NNC(=O)c1ccncc1)=NS2(=O)=O | > 100 µM | > 100 µM | > 100 µM | > 100 µM | > 100 µM | > 100 µM | – | > 100 µM | – | – |
| O=C(c1ccccc1)n1c2ccc(Br)cc2c2nc3ccccc3nc21 | > 100 µM | > 100 µM | > 100 µM | > 100 µM | > 100 µM | > 100 µM | > 100 µM | > 100 µM | > 100 µM | – |
| CN(C)c1ccc(/C=C2\CCCCCC2=O)cc1 | > 100 µM | – | > 100 µM | > 100 µM | – | – | > 100 µM | > 100 µM | > 100 µM | > 100 µM |
| CCOC(=O)N/N=C(/N)Cc1ccc(Cl)cc1 | > 100 µM | > 100 µM | > 100 µM | > 100 µM | > 100 µM | > 100 µM | > 100 µM | > 100 µM | > 100 µM | – |
| Cc1ccc(C)c(C(=O)CC2OC(O)C(Cl)C2Cl)c1 (stereo not given) | > 100 µM | > 100 µM | > 100 µM | > 100 µM | 48.4 µM | > 100 µM | > 100 µM | 33.6 µM | – | – |
| CO[C@@H](c1ccccc1)[C@H](O)[C@@](O)(c1ccccc1)P(=O)(OC)OC | > 100 µM | > 100 µM | > 100 µM | > 100 µM | > 100 µM | – | > 100 µM | > 100 µM | > 100 µM | > 100 µM |
| O=[N+]([O-])c1cccc2c1[nH]c1c(-c3ccccc3)nccc12 | – | > 38.5 µM | 11.4 µM | 12.3 µM | 10.7 µM | > 33.2 µM | > 100 µM | 9.32 µM | – | – |
| COc1ccc(NC(=S)Nc2cccc(C)n2)cc1 | > 100 µM | > 100 µM | > 100 µM | > 100 µM | > 100 µM | > 100 µM | – | > 100 µM | > 100 µM | > 100 µM |
| CC(=O)Oc1cc(OC(C)=O)c2c(c1C)CC[C@@H]1[C@@H]2CC[C@]2(C)[C@@H](OC(C)=O)CC[C@@H]12 | 31.2 µM | 33.3 µM | 34.4 µM | 31.5 µM | 34.2 µM | – | – | 42.4 µM | 29 µM | – |
| C/C(=C\CNc1ncnc2c1ncn2CCC#N)CO | > 100 µM | – | > 100 µM | > 100 µM | > 100 µM | > 100 µM | > 100 µM | > 100 µM | > 100 µM | > 100 µM |
